Experimental data taken from patent US12037344B2, “NLRP3 modulators” (INNATE TUMOR IMMUNITY, INC., priority 2018, dated 2024).
pEC50: −log10 of the molar value. Where two headings read alike, the source gives them in different places.

Columns and labels:
[1] = molecular target: T1, TLR8 (Homo sapiens, UniProt Q9NR97); experiment: In vitro human TLR8 binding reporter assay (HEK-Blue, NF-kB/AP1-inducible SEAP); format: cell-based; conditions: read-out: TLR8 Agonist EC50
T1 construct: human HEK-Blue cells co-expressing a TLR7 or TLR8 gene
T1 sequence (Q9NR97 27-1041): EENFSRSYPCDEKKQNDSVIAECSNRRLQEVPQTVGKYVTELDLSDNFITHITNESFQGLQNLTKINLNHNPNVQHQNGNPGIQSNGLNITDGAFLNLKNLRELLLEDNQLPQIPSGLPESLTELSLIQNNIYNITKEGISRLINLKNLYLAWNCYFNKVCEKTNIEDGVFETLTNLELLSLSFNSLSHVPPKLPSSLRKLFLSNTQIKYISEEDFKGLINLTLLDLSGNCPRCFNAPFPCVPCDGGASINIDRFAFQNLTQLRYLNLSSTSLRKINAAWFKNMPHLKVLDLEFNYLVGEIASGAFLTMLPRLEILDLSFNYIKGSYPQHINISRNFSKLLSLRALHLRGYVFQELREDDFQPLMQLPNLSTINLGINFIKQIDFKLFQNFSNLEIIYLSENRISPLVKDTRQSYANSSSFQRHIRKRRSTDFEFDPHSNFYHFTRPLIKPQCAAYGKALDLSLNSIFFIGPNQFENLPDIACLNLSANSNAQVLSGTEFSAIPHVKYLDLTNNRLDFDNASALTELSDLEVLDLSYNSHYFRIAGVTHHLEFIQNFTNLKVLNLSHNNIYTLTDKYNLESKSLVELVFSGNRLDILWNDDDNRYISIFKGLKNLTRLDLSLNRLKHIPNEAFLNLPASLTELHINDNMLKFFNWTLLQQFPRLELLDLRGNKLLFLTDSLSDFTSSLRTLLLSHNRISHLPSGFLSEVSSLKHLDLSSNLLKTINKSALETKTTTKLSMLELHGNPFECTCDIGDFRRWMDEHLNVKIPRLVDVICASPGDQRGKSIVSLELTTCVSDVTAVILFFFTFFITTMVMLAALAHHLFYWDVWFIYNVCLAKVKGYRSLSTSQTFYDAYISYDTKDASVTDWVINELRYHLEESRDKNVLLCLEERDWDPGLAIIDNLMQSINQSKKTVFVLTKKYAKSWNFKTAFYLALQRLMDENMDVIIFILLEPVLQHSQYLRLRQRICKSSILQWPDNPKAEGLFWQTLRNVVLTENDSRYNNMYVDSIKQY
Outline: (§1)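 Cells are seeded and grown for 24 h. Compounds or DMSO are then added and incubated 18 h at 37 °C. Quanti-Blue is added, and SEAP is read after thirty minutes. EC50 values are normalized, with RLU from 50 μM reference standard setting 100% Ymax.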

[2] = molecular target: T2, TLR7 (Homo sapiens, UniProt Q9NYK1); experiment: In vitro human TLR7 binding reporter assay (HEK-Blue, NF-kB/AP1-inducible SEAP); format: cell-based; conditions: read-out: TLR7 Agonist EC50
T2 construct: human HEK-Blue cells co-expressing a TLR7 or TLR8 gene
T2 sequence (Q9NYK1 27-1049): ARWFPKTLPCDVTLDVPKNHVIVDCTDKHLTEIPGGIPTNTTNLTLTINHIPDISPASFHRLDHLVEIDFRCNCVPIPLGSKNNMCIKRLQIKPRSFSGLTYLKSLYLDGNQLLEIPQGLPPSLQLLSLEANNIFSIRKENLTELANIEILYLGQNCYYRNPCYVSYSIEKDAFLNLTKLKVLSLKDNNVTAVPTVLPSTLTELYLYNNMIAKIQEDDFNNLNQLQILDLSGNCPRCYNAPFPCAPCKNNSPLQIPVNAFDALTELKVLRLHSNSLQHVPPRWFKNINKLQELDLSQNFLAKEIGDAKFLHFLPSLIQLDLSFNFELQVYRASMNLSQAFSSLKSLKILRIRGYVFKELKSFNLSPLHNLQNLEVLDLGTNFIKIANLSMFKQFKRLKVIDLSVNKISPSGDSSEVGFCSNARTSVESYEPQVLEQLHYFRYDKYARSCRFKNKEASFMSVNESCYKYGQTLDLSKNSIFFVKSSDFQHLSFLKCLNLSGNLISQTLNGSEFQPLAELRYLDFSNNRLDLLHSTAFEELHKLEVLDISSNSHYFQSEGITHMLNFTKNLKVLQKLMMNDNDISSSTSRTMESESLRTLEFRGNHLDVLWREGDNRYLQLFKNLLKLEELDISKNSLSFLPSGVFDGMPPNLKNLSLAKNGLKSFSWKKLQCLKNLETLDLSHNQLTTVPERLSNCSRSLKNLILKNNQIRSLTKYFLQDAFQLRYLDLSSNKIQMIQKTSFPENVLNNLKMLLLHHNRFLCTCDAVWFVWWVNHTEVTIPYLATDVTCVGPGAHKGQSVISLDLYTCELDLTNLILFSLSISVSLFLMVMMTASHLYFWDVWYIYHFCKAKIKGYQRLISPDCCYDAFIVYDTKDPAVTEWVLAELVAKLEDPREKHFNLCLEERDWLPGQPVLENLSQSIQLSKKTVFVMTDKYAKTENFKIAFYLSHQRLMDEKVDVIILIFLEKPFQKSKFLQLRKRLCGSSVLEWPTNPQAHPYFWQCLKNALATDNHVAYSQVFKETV
Outline: as §1

[3] = system: THP-1 cells; experiment: Measurement of IL-1β production, hTRF protocol (second alternative procedure), THP-1 cells; format: cell-based, human
Outline: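 THP-1 cells differentiated overnight with 50 ng/ml PMA, then plated at 50,000 cells/well in RPMI with 2% FBS onto serial compound dilutions (top final concentration 10 μM) for 2 hours at 37° C. Supernatant IL-1β measured by hTRF (antibodies at 1:40, overnight at 4° C), read at 665/615 nm against a standard curve.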

[4] = Homo sapiens, THP-1, read-out: NLRP3 hILIB EC50
[5] = Homo sapiens, THP-1, IL-1β production, human cells, read-out: NLRP3 hILIB EC50
[6] = Homo sapiens, THP-1, IL-1β production, human, read-out: NLRP3 hILIB EC50

pEC50 ([1]; activity range class)	pEC50 ([2]; activity range class)	pEC50 ([1]; activity range)	pEC50 ([2]; activity range)	pEC50 [3, 5]	pEC50 ([3]; IL-1β production, human, read-out: NLRP3 hILIB EC50)	pEC50 [3, 6]	SMILES	pEC50 [3, 4]
< 4.00	< 4.00					6.34	Cc1nc(C(=O)NCCn2cc3c(n2)c(N)nc2cc(-c4cc[nH]n4)ccc23)cs1 [Example 43]	
		< 4.00	< 4.00	5.65			N#CCn1cc2c(n1)c(N)nc1cc(-c3cc[nH]n3)ccc12 [Example 551]	
< 4.00	< 4.00					5.84	Nc1nc2cc(-c3cc[nH]n3)ccc2c2c1cnn2CCOCCO [Example 233]	
		< 4.00	< 4.00	5.77			NC(=O)CCCn1cc2c(N)nc3cc(-c4cc[nH]n4)ccc3c2n1 [Example 502]	
< 4.00	< 4.00					6.66	CCOCCn1cc2c(n1)c(N)nc1cc(-c3ccn[nH]3)ccc12 [Example 190]	
		< 4.00	< 4.00	6.57			Nc1nc2cc(-c3cc[nH]n3)ccc2c2[nH]c(CN3CC(F)(F)C3)cc12 [Example 477]	
< 4.00	< 4.00					5.80	COc1cccc(C(=O)NCCn2cc3c(n2)c(N)nc2cc(-c4cc[nH]n4)ccc23)c1 [Example 79]	
		< 4.00	< 4.00	6.12			Nc1nc2cc(-c3cc[nH]n3)ccc2c2[nH]c(CN3CC4(CCOC4)C3)cc12 [Example 492]	
< 4.00	< 4.00					6.12	CC(C)(Cn1cc2c(N)nc3cc(-c4ccn[nH]4)ccc3c2n1)NC(=O)C1CCCO1 (stereo not drawn) [Example 262]	
		< 4.00	< 4.00	7.30			Nc1nc2cc(-c3cc[nH]n3)ccc2c2[nH]c(CNCCF)cc12 [Example 496]	

Further lines, the compound ahead of its results:

SMILES	pEC50 ([1]; activity range class)	pEC50 ([2]; activity range class)	pEC50 ([1]; activity range)	pEC50 ([2]; activity range)	pEC50 [3, 5]	pEC50 ([3]; IL-1β production, human, read-out: NLRP3 hILIB EC50)	pEC50 [3, 6]	pEC50 [3, 4]
Nc1nc2cc(-n3cccn3)ccc2c2cn(CCNC(=O)c3ccccc3)nc12 [Example 132, N-{2-[4-amino-7-(1H-pyrazol-1-yl)-2H-pyrazolo[3,4-c]quinolin-2-yl]ethyl}benzamide]	4.00 to 4.70	< 4.00						6.47
CC(C(=O)NCc1ccccn1)n1cc2c(N)nc3cc(-c4ccn[nH]4)ccc3c2n1 (stereo not drawn) [Example 563]			< 4.00	< 4.00	5.04			
COC(C)Cn1cc2c(N)nc3cc(-c4cc[nH]n4)ccc3c2n1 (single isomer, unassigned) [Example 346]	< 4.00	< 4.00				6.19		
N#C[C@H]1CCN(C(=O)Cn2cc3c(n2)c(N)nc2cc(-c4cc[nH]n4)ccc23)C1 [Example 540]			< 4.00	< 4.00	5.50			
Nc1nc2cc(-c3cc[nH]n3)ccc2c2cn(CCNS(=O)(=O)c3ccccc3)nc12 [Example 114, N-{2-[4-amino-7-(1H-pyrazol-3-yl)-2H-pyrazolo[3,4-c]quinolin-2-yl]ethyl}benzenesulfonamide]	< 4.00	< 4.00						5.32
Nc1nc2cc(-c3cc[nH]n3)ccc2c2c1cnn2Cc1cn[nH]c1 [Example 359]	< 4.00	< 4.00					5.84	
Nc1nc2cc(-c3cc[nH]n3)ccc2c2cn(CCN3CC4COCC4C3)nc12 (stereo not drawn) [Example 30, 2-(2-{hexahydro-1H-furo[3,4-c]pyrrol-5-yl}ethyl)-7-(1H-pyrazol-3-yl)-2H-pyrazolo[3,4-c]quinolin-4-amine]	< 4.00	< 4.00					6.11	
CN(CCn1cc2c(n1)c(N)nc1cc(-c3cc[nH]n3)ccc12)C(=O)c1ccccc1 [Example 120, N-{2-[4-amino-7-(1H-pyrazol-3-yl)-2H-pyrazolo[3,4-c]quinolin-2-yl]ethyl}-N-methylbenzamide]	4.00 to 4.70	< 4.00						5.73
CC(=O)NC(C)Cn1cc2c(N)nc3cc(-n4cccn4)ccc3c2n1 (stereo not drawn) [Example 424]			< 4.00	< 4.00	5.49			
CC(=O)N1CCCC1Cn1cc2c(N)nc3cc(-c4ccn[nH]4)ccc3c2n1 (stereo not drawn) [Example 258]	< 4.00	< 4.00					5.75	
CC(CC(=O)NCCCO)n1cc2c(N)nc3cc(-c4cc[nH]n4)ccc3c2n1 (stereo not drawn) [Example 619]			< 4.00	< 4.00	4.71			
COC1CCN(C(=O)C(C)n2cc3c(N)nc4cc(-c5ccn[nH]5)ccc4c3n2)CC1 (stereo not drawn) [Example 564]			< 4.00	< 4.00	4.81			
Nc1nc2cc(-c3ccn[nH]3)ccc2c2nn(CCCNS(=O)(=O)c3cccnc3)cc12 [Example 595]			< 4.00	< 4.00	4.89			
Nc1nc2cc(-c3cc[nH]n3)ccc2c2cn(CC(=O)NC3CCC3)nc12 [Example 548]			< 4.00	< 4.00	6.11			
Nc1nc2cc(-c3cc[nH]n3)ccc2c2nn(C3CCCCC3O)cc12 (stereo not drawn) [Example 317]	< 4.00	< 4.00					5.62	
Nc1nc2cc(-c3cc[nH]n3)ccc2c2cn(CCNC(=O)c3ccc(OCc4ccccc4)cn3)nc12 [Example 58]	4.70 to 6.00	< 4.00					6.52	
CC(Cn1cc2c(N)nc3cc(-c4ccn[nH]4)ccc3c2n1)NC(=O)c1cc(F)ccn1 (stereo not drawn) [Example 295]	< 4.00	< 4.00					6.38	
Nc1nc2cc(-c3cc[nH]n3)ccc2c2cn(CCCOc3cccnc3)nc12 [Example 9]	< 4.00	< 4.00					6.24	
CCNC(=O)Cn1cc2c(n1)c(N)nc1cc(-c3cc[nH]n3)ccc12 [Example 529]			< 4.00	< 4.00	6.06			
CC(C)(C)OC(=O)Nc1nc(C(=O)NCCn2cc3c(n2)c(N)nc2cc(-c4cc[nH]n4)ccc23)cs1 [Example 80]	4.00 to 4.70	< 4.00					5.68	
CC(C)(C(=O)NCCO)n1cc2c(N)nc3cc(-c4cc[nH]n4)ccc3c2n1 [Example 521]			< 4.00	< 4.00	5.25			
Cc1nccc(C(=O)NCCn2cc3c(n2)c(N)nc2cc(-c4cc[nH]n4)ccc23)n1 [Example 50]	< 4.00	< 4.00					5.84	
Nc1nc2cc(-c3cc[nH]n3)ccc2c2[nH]c(CNCC(F)(F)F)cc12 [Example 497]			< 4.00	< 4.00	7.30			
